Results published in US5708000A, “N4-substituted cytosinyl 1,3-oxathiolane nucleoside analogues, and their antiviral activity” (Laboratoire Laphal, priority 1994, dated 1998).
Read-outs that look alike come from different tables or passages of the source.

Legend:
[1] = system: duck hepatitis B virus (DHBV); assay: Anti-HBV test: effect on the replication of the duck hepatitis B virus (DHBV) in infected duck hepatocytes (viral DNA); type: cell-based; details: Hepatocyte, 240 h, read-out: IC50, inhibition of the replication of DHBV virus
From the text: Among the several methodologies used for evaluating the activity of compounds on Hepatitis B virus (HBV), the pattern of Hepatitis B virus of the duck (Duck HBV) has been utilized (J. Med. Virology (1990) 31 82-89; Viral Hepatitis and Liver disease (1988) 506-509; Hepatology (1989) 10 186-191). The material of culture to test <<in vitro>> the anti HBV activity of the compounds is made of duck hepatocytes infected by the duck Hepatitis B virus (DHBV) (Antimicrob. Agents Chemother. (1989) 33 336-339; J. Med. Virology 40,59-64; Antivir Res. (1993) 21, 155-171; Antimicrob. Agents Chemother. (1993) 37 1539-1542). Indeed the Hepatitis B virus of the duck is recognized as being very close to the human hepatitis B virus (Viral Hepatitis and Liver Disease (1988) 526-529. Antiviral Research (1987) 8189-199). Under standardized conditions (Virology (1989) 171 564-572) the cultures of duck hepatocytes allow the complete replication of DHBV. The antiviral activity of the tested compounds has been measured as a function of the amount of viral DNA produced during 10 days of culture of the infected hepatocytes.
A young male duck 3 weeks old, affected by DHBV, is used for the production of hepatocytes. The duck is killed under anesthesia and the isolation of hepatocytes is carried out using the methodology of Guillouzou (Research in isolated and cultured hepatocytes, J. Libbey Eurotex Ltd / INSERM, 1986). The cells are cultured in the Leibowitz's medium and 5 μg/ml bovine insuline, 7×10^-5 mole cortisone hemisuccinate and 1,5% dimethylsulfoxide (DMSO) are added thereto. The density of the cells is 8×10^6 cells, they are sprayed in culture boxes of 100×20 mm. The tested compounds are added to the culture after the spread out of the cells. The medium is renewed every day, during 10 days. The production of viral DNA of the duck hepatitis B virus in the cells surpernatant is determined by means of hybridation method "Dot blot" according to Fourel and al. (Viral Hepatitis and Liver Disease, 1988, 506-509; Hepatology, 1989, 10, 186-191). Inhibition is expressed as a percentage of the DNA amount present on the supernatant of cells with regard to a culture infected by DHBV untreated with a nucleosidic derivative.
The most representative described compounds have been tested for their effect on the replication of the duck virus HBV (DHBV) along the protocol exposed in the experimental part of this document.

[2] = system: HIV-1 virus (BRU) in MT4 cells; assay: Anti-HIV test: inhibition of HIV-1 replication (syncitia formation) in infected MT4 cells; type: cell-based
From the text: The evaluation of the antiviral action is based on the study of cytopathogenic effect of HIV-1 Virus on the cell line MT4. The cell line MT4 has as an origin T cells isolated from a patient, transformed by the […]. The cytopathogenic effect of HIV-1 virus is shown by the formation of multinucleated giant cells called <> visible under the microscope. This effect of HIV-1 is observed 4 to 5 days after infection. It is followed with the death of cells.
The cytopathogenic effect is directly correlated to the infection of the cells by the virus, to its intracellular replication and to the expression of viral antigens by the cells. An inhibition of this effect thus corresponds to an inhibition of the multiplication of HIV-1 virus.
The MT4 cells are maintained at 3.10^5 cells/ml in a RPMI 1640 medium : 10% of decomplemented fetal calf serum for 30 mn at 56° C. (hormons, serum growth factors . . . ), 1% glutamine, 1% penicillin streptomycin and 2 μg/ml Polyren which promotes the viral adhesion to the cells.
The action of the treatment by the anti-viral agent is continuous. In fact this effect is present before during and after the viral infection. Successive dilutions are performed in the 10% fetal calf serum to be able to cultivate the MT4 cells for 8 days and to observe the formation of syncithias.
Before infection : 3×10^6 cells/100 μl are distributed in a microtiter plate with 96 wells and centrifugated for 3 min. at 2000 rpm (rounds per minute). The pellet is then pre-incubated for 1 hour at 37° C., with 100 μl of various concentrations of the anti-viral agent to be tested.
Infection : The infection is achieved in microwells while adding 100 TCIU (infection units) of HIV-1 virus (this titer of HIV-1 virus is determined as to induce the formation of syncithias in 4 or 5 days). The anti-viral agent is always present at the time of infection and dilution of the virus at 100 TCIU.
After infection : After incubation for 1 hour at 37° C., the MT4 cells are washed three times with RPMI 1640 medium and cultured on account of 3.10^5 cells per milliliter of each of the concentration of the compounds to be tested on plates of 24 wells. When passing at day D3 the MT4 cells are diluted to 1/3. The concentration of the anti-viral agent is maintained. Each day occurrence of syncithia is observed under the microscope to detect any optional delay with respect to the controls HIV-1. At day D8 the determination of reverse transcriptase is carried out. When the cells are not infected thus it is a protection by the tested anti-viral agent.
The compounds the synthesis of which has been described in this patent application and the related structures given in the previous prior art, have an affect on the inhibition of the replication of BRU HIV-1 virus (BRU beeing the vital strain experienced) in the case where the infected cells are of the type MT4.
In the table I they have been described the results of the tests. Column 1 provides the names of the most representative studied compounds and in column 2 they are reported the so-called IC50 values (concentration of the component giving a 50% inhibition of the replication of HIV in the infected MT4 cells, measured at day D7 after infection). In observing and counting the number of formed syncitia in relation with that counted in the case of infected MT4 cells but untreated with antiviral compound, the value IC50 is determined.

[3] = duck hepatocytes infected by DHBV, viral DNA in supernatant, dot blot, 10 days of culture
[4] = Human immunodeficiency virus 1, BRU HIV-1, MT4 cells, syncitia count, day D7 after infection, read-out: IC50 (concentration giving a 50% inhibition of the replication of HIV in the infected MT4 cells)

Structure (SMILES)	IC50 [1, 3]	IC50 [2, 4]	IC50 [1]	IC50 ([2]; Human immunodeficiency virus 1, MT4, read-out: IC50 (concentration giving a 50% inhibition of the replication of HIV in the infected MT4 cells))
O=C(Nc1ccn([C@@H]2CS[C@H](CO)O2)c(=O)n1)c1cccnc1 (relative stereo) [Compound 2, Cis 2-(hydroxymethyl)-5 [N^4-(3"-pyridinylcarbonyl)cytosin-1'-yl]-1,3-oxathiolan]	2 ± 0.5 µM	0.1 to 1 µM		
O=C(Nc1ccn([C@@H]2CS[C@H](CO)O2)c(=O)n1)c1cnc2ccccc2c1 (relative stereo) [Compound 8]	2 µM	10 µM		
C[n+]1cc(C(=O)Nc2ccn([C@@H]3CS[C@H](CO)O3)c(=O)n2)cc2ccccc21 (relative stereo) [Compound 9, cis 2-hydroxymethyl 5-[N^4-(1"-methyl 3"-quinolinyicarbonyl)cytosin-1'yl]-1,3-oxathiolane]			2 µM	> 100 µM
CN1C=C(C(=O)Nc2ccn([C@@H]3CS[C@H](CO)O3)c(=O)n2)Cc2ccccc21 (relative stereo) [Compound 10, cis 2-hydroxymethyl 5-[N^4-(1"-methyl 1", 4"-dihydro 3"-quinolinylcarbonyl)cytosin-1'yl]-1,3-oxathiolane]	2 µM	1 to 10 µM		
O=C(Nc1ccn([C@@H]2CS[C@H](CO)O2)c(=O)n1)c1cccnc1Nc1cccc(C(F)(F)F)c1 (relative stereo) [Compound 11, cis 2-hydroxymethyl-5-[N^4-(2-(a,a,a-trifluoro-m-toluidino)nicotinyl)-cytosin-1'yl]-1,3-oxathiolane]		< 100 µM		
Nc1ccn([C@H]2CS[C@@H](CO)O2)c(=O)n1 [BCH-189, 2',3'-dideoxy 3'-thiacytidine, reference compound]	1 ± 0.5 µM	1 µM		
